Measurements reported in patent US20240299314A1 (priority 2023, published 2024).

Assay: PTX release by dialysis bag diffusion technique (HPLC)
Type: physicochemical
Conditions: 1:9 DMSO:PBS solution
Procedure: where mo (mg) is the initial amount of PTX used; mr (mg) is the residual amount of PTX in the loading solution; mNPs (g) is the […] used in the loading experiment. A dialysis bag diffusion technique was used for examining drug release behaviors. Briefly, PTX@NPs were dispersed in 1 mL of release solution (DMSO: PBS 1:9 v/v) and transferred to a dialysis bag (molecular weight cut off=14 kDa) and shaken in 5 mL of release solution at 37° C. At the predetermined time intervals, 200 μL of the solution was withdrawn and the same amount of fresh solution was added into the system. The released PTX content from PTX@NPs was determined by HPLC analysis. HPLC analyses were recorded on Agilent Technologies 1200 Series with ZORBAX SB-C18 column (Agilent, 5 μm, 4.6×250 mm). The mobile phase was water:acetonitrile (50:50 v/v). The separation was carried out at 30° C. The detection wavelength was 227 nm and a flow rate of 1.0 mL·min^−1 was employed. A sample volume of 20 μL was injected. Free PTX was used as a control to compare with PTX@NPs.

PTX released at the early stage of the release (37° C., dialysis bag): ~15%
release behavior (after the early stage): short-term release
Structure (SMILES): CC(=O)O[C@H]1C(=O)[C@@]2(C)[C@H]([C@H](OC(=O)c3ccccc3)[C@]3(O)C[C@H](OC(=O)[C@H](O)[C@@H](NC(=O)c4ccccc4)c4ccccc4)C(C)=C1C3(C)C)[C@]1(OC(C)=O)CO[C@@H]1C[C@@H]2O [free PTX, paclitaxel]
